Data published in patent publication US11426346B2, “Lutein-containing ophthalmic composition” (Taipei Medical University, priority 2019, dated 2022).

What was measured:
Type in all cases: cell-based, human
IL-6 = assay: Gene expression of inflammatory cytokine IL-6 in LPS-induced HCE-2 cells (Real-Time PCR); conditions: 500 ng/mL LPS 6 hours, then 2 hours treatment, compared with LPS group, FIG. 3B
Experimental: (§1) 3×10^5 (cell/ml) human corneal epithelial cells (HCE-2) were cultured in a 6-well plate and cultured overnight in an incubator for cell attachment, followed 500 ng/mL lipopolysaccharides (LPS) was added in culture medium for co-cultured with cells for 6 hours to induce cell inflammation. After 6 hours, the medium containing lipopolysaccharide (LPS) was removed, and the medium with the lutein, PVA was added to a 6-well plate. After 2 hours of treatment, the gene expressions of cellular inflammatory cytokines (IL-1β, IL-6, TNF-α) were detected by real-time polymerase chain reaction (Real-Time PCR). […]

IL-1β = assay: Gene expression of inflammatory cytokine IL-1β in LPS-induced HCE-2 cells (Real-Time PCR); conditions: 500 ng/mL LPS 6 hours, then 2 hours treatment, compared with LPS group, FIG. 3A
Experimental: as §1

TNF-α = assay: Gene expression of inflammatory cytokine TNF-α in LPS-induced HCE-2 cells (Real-Time PCR); conditions: 500 ng/mL LPS 6 hours, then 2 hours treatment, compared with LPS group, FIG. 3C
Experimental: as §1

CC1=C[C@H](O)CC(C)(C)[C@H]1/C=C/C(C)=C/C=C/C(C)=C/C=C/C=C(C)/C=C/C=C(C)/C=C/C1=C(C)C[C@@H](O)CC1(C)C [lutein (L), lutein]
inhibit the expression: gene expression of IL-6 (IL-6) | gene expression of IL-1β (IL-1β) | gene expression of TNF-α (TNF-α)
